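Values below derive from 48-hour exposures of cells grown in 96-well plates, with endpoints linearly interpolated between the two concentrations bracketing the appropriate inhibition level. GI50: concentration for 50% inhibition of growth. At the TGI there is no net growth.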

Among the test systems are NCI-H460 lung; SF-539 CNS; HCC-2998 colon; ACHN renal; U251 CNS; HOP-92 NSCLC; HOP-62 NSCLC; A498 renal; PC-3 prostate.
Holding throughout (assay): growth of human tumour cells (NCI), 48 h

With `S=c1sc2c(n1-c1ccccc1)NC=NC2S` (stereo not given), the TGI was greater than 100 µM in the assay on NCI-H460 lung; greater than 100 µM with SF-539 CNS; greater than 100 µM with HCC-2998 colon; greater than 100 µM in the assay with ACHN renal; greater than 100 µM with U251 CNS; 71.1 µM in the assay with HOP-92 NSCLC. In addition, the TGI in the assay on HOP-62 NSCLC is greater than 100 µM.
In the case of `COc1ccc(-c2cn[nH]c2-c2cc(OC)c(OC)c(OC)c2)cc1`, the GI50 in the assay with NCI-H460 lung was 0.0351 µM; in the assay on SF-539 CNS, 0.0218 µM; in the assay with HCC-2998 colon, 0.0432 µM; in the assay on ACHN renal, 0.0615 µM; in the assay on U251 CNS it was 0.0358 µM; in the assay with HOP-92 NSCLC, 0.0407 µM. Further, the GI50 is 0.0309 µM in the assay on PC-3 prostate and 0.0352 µM with HOP-62 NSCLC. The TGI came to 10.5 µM in the assay on NCI-H460 lung; 0.0566 µM in the assay with SF-539 CNS; 0.0715 µM with A498 renal; 15 µM in the assay on HCC-2998 colon; 21.3 µM in the assay with ACHN renal; 1.7 µM in the assay with U251 CNS. Moreover, the TGI with HOP-92 NSCLC was found to be 9.79 µM; in the assay with PC-3 prostate, 59.8 µM; with HOP-62 NSCLC it was 33.7 µM.
Take `O=C1CN(c2cccc(Cl)c2)C(=O)CN1CCN1CC(=O)N(c2cccc(Cl)c2)CC1=O`: the TGI in the assay on NCI-H460 lung, in the assay with SF-539 CNS, with A498 renal, in the assay on HCC-2998 colon, in the assay with ACHN renal and in the assay on U251 CNS was greater than 100 µM in each case. Also, the TGI with HOP-92 NSCLC, with PC-3 prostate and in the assay on HOP-62 NSCLC was greater than 100 µM throughout.
For `CC(=O)O/N=C(/C)c1ccccc1O`, the TGI in the assay with NCI-H460 lung, in the assay on SF-539 CNS, in the assay with HCC-2998 colon, in the assay with ACHN renal, in the assay with U251 CNS and with HOP-62 NSCLC was greater than 100 µM each time.
`Cc1ccc(Oc2ccc(C)cc2N)cc1`: the TGI in the assay on NCI-H460 lung is greater than 100 µM; in the assay on SF-539 CNS it was greater than 100 µM; in the assay on A498 renal, greater than 100 µM; in the assay on HCC-2998 colon, greater than 100 µM; in the assay with U251 CNS it was greater than 100 µM; with HOP-92 NSCLC it was 95.3 µM. In the assay with HOP-62 NSCLC, this molecule registered a TGI greater than 100 µM.
`C/C(CCn1[nH]c(=O)ccc1=O)=N\NC(=O)C(=O)NN`: the TGI with NCI-H460 lung, in the assay with SF-539 CNS, in the assay on A498 renal, in the assay with HCC-2998 colon, in the assay on ACHN renal and in the assay on HOP-62 NSCLC was greater than 100 µM each time.
Take `CC(C)=CCC(O)C1=CC(=O)c2c(O)ccc(O)c2C1=O` (stereo not given): the TGI in the assay on NCI-H460 lung is 7.78 µM; with SF-539 CNS, 3.01 µM; with A498 renal, 4.08 µM; in the assay on HCC-2998 colon, 3.68 µM; in the assay on ACHN renal it was 1.86 µM; in the assay with U251 CNS, 4.74 µM. Besides, the TGI in the assay with PC-3 prostate turned out to be 5.17 µM; in the assay on HOP-62 NSCLC, 4.95 µM.
`CCCCCC[C@@H]1CCC2C(CO)[C@@H](O)CC[C@@H]2C1` (stereo not given in full): the TGI in the assay on NCI-H460 lung stood at 30.4 µM; in the assay on SF-539 CNS, 33.1 µM; in the assay with HCC-2998 colon, 37 µM; with ACHN renal it was 33.6 µM; in the assay on U251 CNS it was 33.9 µM; with HOP-62 NSCLC, 33 µM.
On to `O=C(Nc1ccccc1-c1nn(C(=S)Nc2ccccc2)c(=S)n(C(=S)Nc2ccccc2)c1=O)C(F)(F)F`, for which the TGI with NCI-H460 lung was greater than 100 µM; in the assay on SF-539 CNS, greater than 100 µM; in the assay with A498 renal it was greater than 76.6 µM; with HCC-2998 colon, greater than 72.5 µM; in the assay with ACHN renal it was greater than 95.6 µM; with U251 CNS, greater than 70.9 µM. Moreover, the TGI is 57.9 µM with HOP-92 NSCLC and greater than 100 µM in the assay on HOP-62 NSCLC.
Consider `c1ccc(NCn2cnc3ccccc32)cc1`, for which the TGI in the assay on NCI-H460 lung, with SF-539 CNS, with A498 renal, with ACHN renal and with U251 CNS was greater than 100 µM in each case.
Consider `N[C@@H]1CCCC[C@@H]1N.O=P([O-])([O-])CN(CCN(CP(=O)([O-])[O-])CP(=O)([O-])[O-])CP(=O)([O-])[O-].[Pt+2]`, for which the GI50 in the assay on NCI-H460 lung, in the assay with SF-539 CNS, in the assay with A498 renal, in the assay on HCC-2998 colon, in the assay on ACHN renal and in the assay on U251 CNS was greater than 25 µM throughout. Also, the GI50 in the assay with HOP-62 NSCLC was greater than 25 µM. Also, the TGI in the assay with NCI-H460 lung, with SF-539 CNS, in the assay on A498 renal, in the assay on HCC-2998 colon, in the assay on ACHN renal and in the assay on U251 CNS was greater than 25 µM in each case. In the assay with HOP-62 NSCLC, this molecule came in with a TGI greater than 25 µM.
Regarding `CCOC(=O)C1=C(C(=O)OCC)C2c3ccccc3C=CN2C(C(=O)OCC)=C(SC)S1` (stereo not given), the TGI with NCI-H460 lung, with SF-539 CNS, in the assay on HCC-2998 colon, in the assay with ACHN renal, in the assay with U251 CNS and in the assay with HOP-62 NSCLC was greater than 100 µM each time.
For `O=C1CCC2(c3ccc(Cl)cc3)Nc3ccncc3N12` (stereo not given), the TGI with NCI-H460 lung, in the assay with SF-539 CNS, with ACHN renal, in the assay with U251 CNS, in the assay with HOP-92 NSCLC and with PC-3 prostate was greater than 10 µM in each case.
Turning to `COC(=O)CC(c1ccccc1)C1(c2ccccc2)SCCS1` (stereo not given), the TGI in the assay with NCI-H460 lung was greater than 290 µM; in the assay with SF-539 CNS it was greater than 290 µM; in the assay with HCC-2998 colon it was greater than 290 µM; in the assay with ACHN renal, greater than 290 µM; in the assay on U251 CNS it was greater than 290 µM; with HOP-92 NSCLC, 187 µM. The molecule also had a TGI with HOP-62 NSCLC greater than 290 µM.
Consider `CC(C)(C)c1cc2c(O)c3cccc4c(=O)c5cccc6c5-c(c34)c2c(c1)c6=O`, for which the TGI was greater than 100 µM in the assay with NCI-H460 lung; greater than 100 µM with A498 renal; 0.0657 µM in the assay on HCC-2998 colon; greater than 100 µM with ACHN renal; greater than 100 µM in the assay with U251 CNS; 96.5 µM in the assay on HOP-92 NSCLC. Also, the TGI with HOP-62 NSCLC was greater than 100 µM.
Turning to `Cc1ccc(/C=C/C(=O)c2cccc3ccccc23)cc1`, the TGI in the assay on NCI-H460 lung turned out to be 30.7 µM; in the assay on A498 renal, 27.4 µM; with HCC-2998 colon it was 37.7 µM; in the assay on ACHN renal, 30.7 µM; in the assay with U251 CNS, 25.6 µM; in the assay on HOP-62 NSCLC, 37.7 µM.

Values taken from PubChem BioAssay (NCI).
